From patent publication US4163785A, “Benzothiazepine compounds and compositions” (Hexachimie, priority 1978, dated 1979)

Assays:
[1] = tested on: passive cutaneous anaphylaxis reaction; test: Passive cutaneous anaphylaxis reaction; type: in vivo, rat; conditions: for % inhibition: reduction of coloured surface; for ED50: Rattus norvegicus
Protocol: The method used is that described by MOTA I in "Immunology" 1964, 7, Page 681. This method consists of sensitizing rats by 4 intradermal injections of 0.1 ml rat antiserum. The antiserum is obtained from animals treated with a mixture of ovalbumin and bordetella pertussis. 72 hours after sensitization, the product to be studied and 1 ml per rat (IV) of a 0.25% solution of Evans blue+5 mg/ml ovalbumin in an isotonic aqueous solution of […] sodium chloride are administered to the animals intravenously or intraperitoneally. Thirty minutes after this last injection, the animals are killed and one measures the surface area of each bruise corresponding to the point of injection of the antiserum. The results are expressed as a percentage reduction of the coloured surface. The results are given in Table III hereafter in which the results obtained with disodium cromoglycate (used intravenously) are also shown by way of comparison.

histamine [2] = test: Histamine bronchoconstrictor aerosol (antihistamine activity); type: in vivo, guinea pig; conditions: for % protection: animals without apneic crisis within 5 minutes
Protocol: Batches of 6 guinea pigs weighing from 200 to 250 g are exposed to an aerosol of 0.2% histamine in an aqueous solution, in a small chamber for 5 minutes. Two aerosols are used at an interval of 4 hours. The product tested is administered intraperitoneally 30 minutes before the use of the second aerosol.

histamine [3] = test: Action with regard to a LD100 of histamine (protection from mortality); type: in vivo, guinea pig; conditions: for % protection: mortality caused by histamine, 1 hour
Protocol: Male tricolour guinea pigs weighing 400 to 500 g receive the product studied intraperitoneally. 30 minutes later, 800 γ/kg histamine, or the LD 100 in physiological solution are injected intraveinously.
The animals are kept under observation for 1 hour.

O=C(O)c1cc(=O)c2c(OCC(O)COc3cccc4oc(C(=O)O)cc(=O)c34)cccc2o1 [Disodium cromoglycate, disodium cromoglycate]
Mean Surface area ([1]; IV, 0.15 mg/kg, control 31.77 ± 3.16): 27.86 ± 3.82 mm^2
% inhibition ([1]; IV, 0.15 mg/kg, T ns): 12%
Mean Surface area ([1]; IV, 0.31 mg/kg, control 31.77 ± 3.16): 30.5 ± 2.59 mm^2
% inhibition ([1]; IV, 0.31 mg/kg, T ns): 4%
Mean Surface area ([1]; IV, 0.625 mg/kg, control 72.46 ± 4.37): 35.42 ± 5.02 mm^2
% inhibition ([1]; IV, 0.625 mg/kg, T ***): 51%
Mean Surface area ([1]; IV, 1.25 mg/kg, control 31.77 ± 3.16): 2.30 ± 1.07 mm^2
% inhibition ([1]; IV, 1.25 mg/kg, T ***): 93%
Mean Surface area ([1]; IV, 2.5 mg/kg, control 31.77 ± 3.16): 0.23 ± 0.23 mm^2
% inhibition ([1]; IV, 2.5 mg/kg, T ***): 99%
ED50 ([1]; iv): 0.64 mg/kg

CN1CCN(C2=Nc3ccccc3Sc3ncccc32)CC1 [Example 2, 5-(1'-methyl-4'-piperazinyl)pyrido[2,3-b][1,5]benzothiazepine]
% protection (histamine [2]; 0.062 mg/kg intraperitoneally): 17%
% protection (histamine [2]; 0.125 mg/kg intraperitoneally): 33%
% protection (histamine [2]; 0.250 mg/kg intraperitoneally): 50%
% protection (histamine [2]; 0.500 mg/kg intraperitoneally): 100%
ED50 (histamine [2]; Cavia porcellus, ip, intraperitoneally, 0.2% histamine aerosol): 0.155 mg/kg
Mean Surface area ([1]; I.P., 0.125 mg/kg, control 66.7 ± 2.62): 54.4 ± 3.26 mm^2
% inhibition ([1]; I.P., 0.125 mg/kg, T **): 18%
Mean Surface area ([1]; I.P., 0.5 mg/kg, control 90.8 ± 5.92): 46.3 ± 3.78 mm^2
% inhibition ([1]; I.P., 0.5 mg/kg, T ***): 49%
Mean Surface area ([1]; I.P., 1 mg/kg, control 66.7 ± 2.62): 25.1 ± 3.45 mm^2
% inhibition ([1]; I.P., 1 mg/kg, T ***): 62%
ED50 ([1]; ip, I.P.): 0.57 mg/kg
% protection (histamine [3]; 0.062 mg/kg intraperitoneally): 0%
% protection (histamine [3]; 0.125 mg/kg intraperitoneally): 60%
% protection (histamine [3]; 0.250 mg/kg intraperitoneally): 100%
ED50 (histamine [3]; Cavia porcellus, ip, intraperitoneally, 800 γ/kg histamine (LD 100) intravenously): 0.12 mg/kg
